One data set concerns HIV. Briefly: Antiviral assay: inhibition of the killing of HIV-infected T4 lymphocytes (CEM cell line), XTT formazan readout. The class given is cell-based. Conditions: for EC50: Human immunodeficiency virus 1, CCRF-CEM, read-out: EC50, Inhibition of the killing of HIV-infected T4-lymphocytes; for therapeutic index (IC50 divided by EC50): in cell culture. As for the experimental part:
The procedure used in the test for agents active against (HIV) is designed to detect agents acting at any stage of the virus reproductive cycle. The assay basically involves the killing of T4 lymphocytes by HIV. Small amounts of HIV are added to cells, and at least two complete cycles of virus reproduction are necessary to obtain the required cell killing. Agents which interact with virions, cells, or virus gene-products to interfere with viral activities will protect cells from cytolysis. The system is automated in several features to accommodate large numbers of candidate agents, and is generally designed to detect anti-HIV activity. However, compounds which degenerate or are rapidly metabolized in the culture conditions may not show activity in this screen. Also, while every attempt has been made to reduce variability, precise values for EC₅₀, IC₅₀, and Therapeautic Index are not possible. All tests are compared with a positive (AZT-treated) control done at the same time under identical conditions.
• 1. T4 lymphocytes (CEM cell line) are exposed to HIV at a virus to cell ratio approximately 0.05, and plated along with noninfected control cells in 96-well microtiter plates. • 2. The candidate agent is dissolved in dimethyl sulfoxide (unless otherwise instructed), then diluted 1:200 in cell culture medium. Further dilutions (half-log₁₀) are prepared before adding to an equal volume of medium containing either infected or noninfected cells. • 3. Cultures are incubated at 37 °C in a 5% carbon dioxide atmosphere for 6 or 7 days. • 4. The tetrazolium salt, XTT, is added to all wells, and cultures are incubated to allow formazan color development by viable cells. • 5. Individual wells are analyzed spectrophotometrically to quantitate formazan production, and in addition are viewed microscopically for detection of viable cells and confirmation of protective activity. • 6. Drug-treated virus-infected cells are compared with drug-treated noninfected cells and with other appropriate controls (untreated infected and untreated noninfected cells, drug-containing wells without cells, etc.) on the same plate. • 7. Data are reviewed in comparison with other tests done at the same time, and a determination about activity is made.

Another data set has as its system Vero cells. Put plainly: Effect on the replication of Vero cells. The class given is cell-based. The settings on record: for inhibition at 100 µg/mL: Conc. 100 ug/ml. As to the method: A second experiment shown in Table II herebelow was conducted to show the effects of various compounds on replication of Vero cells. […] This is indicative of much lower toxicity than AZT, (Compound No. 1) which inhibit a much higher percentage of these cells at a given concentration. TABLE II [table]

Data on five compounds can be found in patent publication EP0348170A2, “Antiviral pyrimidine derivatives” (Lee, Moses Nam Fong, priority 1988, dated 1989).

By EC50 is commonly meant the concentration giving half of the maximal effect. For orientation: inhibition means the percentage by which the read-out fell short of the control. Higher therefore signals strong suppression.

Values after ≈ are worked out from the molar mass of the structure shown.

Regarding `Cc1cn([C@H]2C=C(n3ccnn3)[C@@H](CO)O2)c(=O)[nH]c1=O` [Compound 2, 1-[2′,3′-Didehydro-2′,3′-dideoxy-3′-(1˝-1˝,2˝,3˝-triazolo)ribofuranosyl]thymine], the EC50 in the data set with HIV is > 100 µg/mL.

As to `Cc1cn([C@H]2C[C@H](N=[N+]=[N-])[C@@H](CO)O2)c(=O)[nH]c1=O` [AZT, 3′-azido-3′-deoxythymidine, reference compound], in the data set on HIV, the “therapeutic index (IC50 divided by EC50)” value was “about 100”. In the data set with Vero cells (Chlorocebus sabaeus, Vero, Conc. 10 ug/ml), this compound gave an inhibition at 10 µg/mL of 21%. In the data set with Vero cells (Chlorocebus sabaeus, Vero), at 100 µg/mL the inhibition was 86%.

`C#CC1=C[C@H](n2cc(C)c(=O)[nH]c2=O)O[C@@H]1CO` [Compound 3, 1-(2′,3′-Didehydro-2′,3′-dideoxy-3′-ethynylribofuranosyl)thymine]: the EC50 in the data set with HIV is > 100 µg/mL.

With `Cc1nnc(S(=O)(=O)C2=C[C@H](n3cc(C)c(=O)[nH]c3=O)O[C@@H]2CO)s1` [Compound 5, 1-[2′,3′-Didehydro-2′,3′-dideoxy-3′-(2˝-sulfono-5˝-methyl-1˝,3˝,4˝-thiadiazolo)ribofuranosyl]thymine], in the data set on HIV, the EC50 was 4.9 µg/mL (≈ 12.7 µM) and the “therapeutic index (IC50 divided by EC50)” value was ~170. The compound also displayed an inhibition at 50 µg/mL with Vero cells (Chlorocebus sabaeus, Vero, Conc. 50 ug/ml) of 0%. This compound also registered an inhibition at 75 µg/mL with Vero cells (Chlorocebus sabaeus, Vero, Conc. 75 ug/ml) of 10%. The compound also showed an inhibition at 100 µg/mL with Vero cells (Chlorocebus sabaeus, Vero) of 20%. Also, the “inhibition of Vero cells, in words” value in the data set with Vero cells (fast growing Vero cells) is reported as “little inhibition”.

As to `Cc1cn([C@H]2C=C(C#N)[C@@H](CO)O2)c(=O)[nH]c1=O` [Compound 4, 1-(3′-Cyano-2˝,3˝-didehydro-2′,3′-dideoxyribofuranosyl)thymine], the EC50 in the data set on HIV is > 100 µg/mL.
